The numbers were not newly measured in US20160310431A1, “Three-Phase System for Modified Release of a Non-Steroidal Antiinflammatory” (priority 2013, published 2016), which cites them from elsewhere.

Like-named read-outs stand apart in the source and are kept apart here.

One data set deals with COX-1 and COX-2. As to conditions: COX-1 vs COX-2.
For data set [1] the following is noted: intramuscular administration.
Experiment in data set [2]: not given
The source holds these as a separate data set.

The mark [3] stands for this setting: intramuscular administration, single dose of 30 mg.

`O=C(c1ccccc1)c1ccc2n1CCC2C(=O)O` (centres unmarked) [Ketorolac]: the “binding to plasma proteins” value in the data set with plasma proteins was 99%. In addition, the “metabolized via the liver by conjugation” value (inactive metabolites) is reported as 21%. In addition, for the setting “renal excretion”, the “excreted as a conjugated metabolite” value is 21.9%, the “excreted as the drug without changes” value is given as 60.2% and the excreted hydroxylated was 11.5%. Further, the “selectivity for COX isoforms” value in the data set with COX-1 and COX-2 is on record as “not being selective for any of the isoforms”.
For `O=C(c1ccccc1)c1ccc2n1CCC2C(=O)O` (centres unmarked) [Ketorolac tromethamine], in data set [1], the “appearance of analgesic effect” value is given as “first half hour”, the “duration of analgesic effect” value is 4 to 6 h and the “peak of analgesic effect” value was 1 to 2 h. For the same molecule, in data set [2] (setting [3]), the maximum plasma concentration is reported as 2.2 µg/mL and the “time at which maximum plasma concentration appears” value (from here on “time”) is 50 min. In data set [2] (intravenous administration), the “time” value was 5.4 min. For the same molecule, the “time” value in data set [2] (oral administration, tablets or capsules) is 180 min. Besides, the absorption result in data set [2] (orally and parenterally) is “rapidly and completely absorbed”.
